This is an account of results in patent publication US9458172B2, “Pyridinyl and pyrimidinyl sulfoxide and sulfone derivatives” (priority 2012, dated 2016).

One test addresses NAMPT (Homo sapiens (Human), UniProt P43490). The experiment in a line: Biochemical Inhibition Assay (NAMPT enzymatic reaction, NMN quantified by mass spectrometry). The note with it: 33 nM recombinant His-tagged NAMPT, 1 μM NAM, 30 min at rt. Summed up: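 His-tagged human NAMPT from E. coli preincubated 15 min at rt with compound in 50 mM Hepes pH 7.5, 50 mM NaCl, 5 mM MgCl2, 1 mM THP, then reacted 30 min at rt with 1 μM NAM, […] PRPP, 2.5 mM ATP. NMN quantified by RapidFire mass spectrometry, normalized to L-Cystathionine, background subtracted.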

A further test deals with A2780 cells. The experiment in a line: In-Vitro Cell Proliferation Assay (SRB).
The mark [1] stands for this setting: Homo sapiens, A2780, 72 h, read-out: Cell Proliferation (IC50).
The mark [2] stands for this setting: Homo sapiens, A2780, 72 h, read-out: Cell Proliferation (IC50), A2780 cells, 72 h, sulforhodamine B.

Read-outs that look alike come from different tables or passages of the source.

Chain of NAMPT (P43490 whole entry): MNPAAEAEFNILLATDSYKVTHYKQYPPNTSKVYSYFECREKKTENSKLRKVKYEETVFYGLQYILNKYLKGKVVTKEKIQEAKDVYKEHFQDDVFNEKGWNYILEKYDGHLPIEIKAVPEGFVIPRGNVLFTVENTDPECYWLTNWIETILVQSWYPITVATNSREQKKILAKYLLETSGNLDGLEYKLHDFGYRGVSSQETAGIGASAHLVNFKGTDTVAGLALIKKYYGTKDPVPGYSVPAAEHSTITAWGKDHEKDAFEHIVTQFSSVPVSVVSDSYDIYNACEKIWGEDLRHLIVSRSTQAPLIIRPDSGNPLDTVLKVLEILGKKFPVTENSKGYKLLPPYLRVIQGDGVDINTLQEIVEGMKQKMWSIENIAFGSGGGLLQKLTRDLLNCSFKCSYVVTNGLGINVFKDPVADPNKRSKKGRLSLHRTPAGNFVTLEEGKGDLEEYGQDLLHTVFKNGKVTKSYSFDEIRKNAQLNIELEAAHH
Procedure for A2780 cells: Assay 2: In-Vitro Cell Proliferation Assay
Assay Method. […] The compounds were then further diluted to 10 OX final concentration in culture media, whereupon 20 μL of each dilution was added to the plated cells with controls (e.g. DMSO and blank) to make a final volume of 200 μL. The final DMSO concentration in each well was 0.1%. The plates were then incubated for 72 h at 37° C. in a 5% CO2 incubator. The number of viable cells was then assessed using sulforhodamine B (SRB) assay. Cells were fixed at 4° C. for 1 h with the addition of 50 μL 30% trichloroacetic acid (TCA) to make a final concentration of 6% TCA. The plates were washed four times with H2O and allowed to dry for at least 1 h, whereupon 100 μL of a 4% SRB in 1% acetic acid solution was added to each well and incubated at rt for at least 30 min. The plates were then washed three times with 1% acetic acid, dried, and treated with 100 μL of 10 mM Tris-Base solution. The plates were then read in a microplate reader at an absorbance of 570 nm. Background was generated on a separate plate with media only.
Determination of IC50 Values. First, the signals from the background plate were averaged, then the background was subtracted from the test plates.
The specificity of the compounds were determined via cell viability assay in the presence of the compound and either NAM or NMN Percent inhibitions were determined using the method given above.

`Cn1cc(S(=O)(=O)c2ccc(CNC(=O)c3ccc4nccn4c3)nc2)cn1` [Example 36, Imidazo[1,2-a]pyridine-6-carboxylic acid [5-(1-methyl-1H-pyrazole-4-sulfonyl)-pyridin-2-ylmethyl]-amide]: the IC50 was 101 nM at NAMPT and 472 nM with A2780 cells (setting [1]).

`O=C(NCc1ccc(S(=O)(=O)C2CCN(CC(F)(F)F)CC2)cn1)c1ccc2nccn2c1` [Example 152, N-[[5-[[1-(2,2,2-trifluoroethyl)-4-piperidyl]sulfonyl]-2-pyridyl]methyl]imidazo[1,2-a]pyridine-6-carboxamide]: the IC50 was 247 nM on NAMPT and 106 nM in the test with A2780 cells (setting [1]).

On to `O=C(NCc1ccc(S(=O)(=O)c2ccccc2)cn1)c1ccc2nccn2c1` [Example 184, N-[[5-(benzenesulfonyl)-2-pyridyl]methyl]imidazo[1,2-a]pyridine-6-carboxamide], for which the figures for the IC50 at NAMPT and in the test on A2780 cells (setting [2]) were 99.2 nM and 2000 nM, respectively.

With `CN(C)c1ccc(S(=O)(=O)c2ccc(CNC(=O)c3ccc4nccn4c3)nc2)cn1` [Example 83, Imidazo[1,2-a]pyridine-6-carboxylic acid [5-(6-dimethylamino-pyridine-3-sulfonyl)-pyridin-2-ylmethyl]-amide], the figures for the IC50 at NAMPT and in the test on A2780 cells (setting [1]) were 9.1 nM and 7.3 nM, respectively.

`O=C(NCc1ccc(S(=O)(=O)C2CCN(CC(F)(F)F)CC2)cn1)c1cc2cnccc2[nH]1` [Example 166, N-[[5-[[1-(2,2,2-trifluoroethyl)-4-piperidyl]sulfonyl)-2-pyridyl]methyl]-1H-pyrrolo[3,2-c]pyridine-2-carboxamide]: the IC50 on NAMPT is 224 nM; in the test with A2780 cells (setting [1]) it was 91 nM.

On to `CCN(C)c1ncc(S(=O)(=O)c2ccc(CNC(=O)N3Cc4ccncc4C3)nc2)s1` [Example 147, N-[[5-[2-[ethyl(methyl)amino]thiazol-5-yl]sulfonyl-2-pyridyl]methyl]-1,3-dihydropyrrolo[3,4-c]pyridine-2-carboxamide], for which the IC50 at NAMPT came to 6.83 nM; with A2780 cells (setting [1]), 5.97 nM.

Take `O=C(NCc1ccc(S(=O)(=O)C2CCN(CC(F)(F)F)CC2)cn1)c1cc2ccncc2o1` [Example 131, N-[[5-[[1-(2,2,2-trifluoroethyl)-4-piperidyl]sulfonyl]-2-pyridyl]methyl]furo[2,3-c]pyridine-2-carboxamide]: the IC50 on NAMPT came out at 5.24 nM; in the test with A2780 cells (setting [2]), 24.4 nM.

For the molecule `COc1cccc(S(=O)(=O)c2ccc(CNC(=O)c3cnc4[nH]ncc4c3)nc2)c1` [Example 34, 1H-Pyrazolo[3,4-b]pyridine-5-carboxylic acid [5-(3-methoxy-benzenesulfonyl)-pyridin-2-ylmethyl]-amide], the figures for the IC50 on NAMPT and with A2780 cells (setting [1]) were 59.9 nM and 104 nM, respectively.

As to `COCC(=O)N1CCC(S(=O)(=O)c2ccc(CNC(=O)c3cc4ccncc4o3)nc2)CC1` [Example 122, N-[[5-[[1-(2-methoxyacetyl)-4-piperidyl]sulfonyl]-2-pyridyl]methyl]furo[2,3-c]pyridine-2-carboxamide], the IC50 turned out to be 103 nM at NAMPT and 46.3 nM in the test with A2780 cells (setting [1]).

Regarding `O=C(NCc1ccc(S(=O)(=O)c2cccc(OC(F)(F)F)c2)cn1)c1cc2ccncc2o1` [Example 23, Furo[2,3-c]pyridine-2-carboxylic acid [5-(3-trifluoromethoxy-benzenesulfonyl)-pyridin-2-ylmethyl)-amide], the IC50 worked out at 6.1 nM at NAMPT and 10.8 nM with A2780 cells (setting [1]).

For `O=C(NCc1ccc(S(=O)(=O)c2ccc(N3CCOCC3)nc2)cn1)c1cc2ccncc2s1` [Example 54, Thieno[2,3-c]pyridine-2-carboxylic acid [5-(6-morpholin-4-yl-pyridine-3-sulfonyl)-pyridin-2-ylmethyl]-amide], the IC50 is 1.7 nM on NAMPT and 0.5 nM with A2780 cells (setting [1]).

On to `O=C(NCc1ccc(S(=O)(=O)c2cccc(OC(F)(F)F)c2)cn1)N1Cc2ccncc2C1` [Example 50, 1,3-Dihydro-pyrrolo[3,4-c]pyridine-2-carboxylic acid [5-(3-trifluoromethoxy-benzenesulfonyl)-pyridin-2-ylmethyl]-amide], for which the IC50 at NAMPT is 3.4 nM; in the test on A2780 cells (setting [1]), 13.5 nM.

With `O=C(NCc1ccc(S(=O)(=O)c2cncc(C(F)(F)F)c2)cn1)c1cnc2[nH]ncc2c1` [Example 165, N-[[5-[[5-(trifluoromethyl)-3-pyridyl]sulfonyl]-2-pyridyl]methyl]-1H-pyrazolo[3,4-b]pyridine-5-carboxamide], the IC50 on NAMPT turned out to be 217 nM; with A2780 cells (setting [1]), 64.4 nM.

For `CN(C)c1ccc(S(=O)(=O)c2ccc(CNC(=O)c3cc4ccncc4o3)nc2)cn1` [Example 67, Furo[2,3-c]pyridine-2-carboxylic acid [5-(6-dimethylamino-pyridine-3-sulfonyl)-pyridin-2-ylmethyl]-amide], the results for the IC50 on NAMPT and in the test on A2780 cells (setting [1]) were 2.6 nM and 1.9 nM, respectively.

In the case of `COc1cccc(S(=O)(=O)c2ccc(CNC(=O)c3cnc4nccn4c3)nc2)c1` [Example 33, Imidazo[1,2-a]pyrimidine-6-carboxylic acid [5-(3-methoxy-benzenesulfonyl)-pyridin-2-ylmethyl]-amide], the IC50 came out at 4.6 nM on NAMPT and 28.6 nM in the test with A2780 cells (setting [1]).

Regarding `O=C(NCc1ccc([S+]([O-])c2cccc(C(F)(F)F)c2)cn1)N1Cc2ccncc2C1` (centres unmarked) [Example 120, N-[[5-[3-(trifluoromethyl)phenyl]sulfinyl-2-pyridyl]methyl]-1,3-dihydropyrrolo[3,4-c]pyridine-2-carboxamide], the IC50 is 11.7 nM at NAMPT and 7.59 nM with A2780 cells (setting [1]).

Regarding `O=C(NCc1ccc(S(=O)(=O)c2ccccc2)cn1)c1cnc2nccn2c1` [Example 185, N-[[5-(benzenesulfonyl)-2-pyridyl]methyl]imidazo[1,2-a]pyrimidine-6-carboxamide], the IC50 was 20.2 nM on NAMPT and 495 nM in the test on A2780 cells (setting [1]).

On to `CCS(=O)(=O)c1cccc(S(=O)(=O)c2ccc(CNC(=O)N3Cc4ccncc4C3)nc2)c1` [Example 114, N-[[5-(3-ethylsulfonylphenyl)sulfonyl-2-pyridyl]methyl]-1,3-dihydropyrrolo(3,4-c]pyridine-2-carboxamide], for which the IC50 on NAMPT amounted to 2.12 nM; in the test with A2780 cells (setting [1]) it was 134 nM.

Regarding `N#Cc1cccc(S(=O)(=O)c2ccc(CNC(=O)N3Cc4ccncc4C3)nc2)c1` [Example 158, N-[[5-(3-cyanophenyl)sulfonyl-2-pyridyl]methyl]-1,3-dihydropyrrolo[3,4-c]pyridine-2-carboxamide], the figures for the IC50 on NAMPT and with A2780 cells (setting [1]) were 156 nM and 2000 nM, respectively.

For the molecule `Cn1cc(S(=O)(=O)c2ccc(CNC(=O)N3Cc4ccncc4C3)nc2)cn1` [Example 99, 1,3-Dihydro-pyrrolo[3,4-c]pyridine-2-carboxylic acid [5-(1-methyl-1H-pyrazole-4-sulfonyl)-pyridin-2-ylmethyl]-amide], the IC50 is 54.7 nM at NAMPT and 1200 nM in the test with A2780 cells (setting [1]).

On to `CCCC(=O)N1CCC(S(=O)(=O)c2ccc(CNC(=O)N3Cc4ccncc4C3)nc2)CC1` [Example 108, 1,3-Dihydro-pyrrolo[3,4-c]pyridine-2-carboxylic acid [5-(1-butyryl-piperidine-4-sulfonyl)-pyridin-2-ylmethyl]-amide], for which the IC50 on NAMPT was found to be 27.7 nM; in the test with A2780 cells (setting [1]), 358 nM.

For the molecule `CCCn1cc(S(=O)(=O)c2ccc(CNC(=O)c3cc4ccncc4s3)nc2)cn1` [Example 76, Thieno[2,3-c]pyridine-2-carboxylic acid [5-(1-propyl-1H-pyrazole-4-sulfonyl)-pyridin-2-ylmethyl]-amide], the IC50 was 3.1 nM at NAMPT and 9 nM in the test on A2780 cells (setting [1]).

On to `O=C(NCc1ccc(S(=O)(=O)c2cncc(Cl)c2)cn1)c1cnc2[nH]ncc2c1` [Example 164, N-[[5-[(5-chloro-3-pyridyl)sulfonyl]-2-pyridyl]methyl]-1H-pyrazolo[3,4-b]pyridine-5-carboxamide], for which the results for the IC50 on NAMPT and in the test on A2780 cells (setting [1]) were 143 nM and 49.4 nM, respectively.

For the molecule `CN1CCN(c2ccc(S(=O)(=O)c3ccc(CNC(=O)c4cc5ccncc5o4)nc3)cn2)CC1` [Example 135, N-[[5-[[6-(4-methylpiperazin-1-yl)-3-pyridyl]sulfonyl]-2-pyridyl]methyl]furo[2,3-c]pyridine-2-carboxamide], the IC50 stood at 18 nM on NAMPT and 34.4 nM in the test with A2780 cells (read-out: Cell Proliferation (IC50), A2780 cells, 72 h, sulforhodamine B).

For `O=C(NCc1ccc([S+]([O-])c2cccc(C(F)(F)F)c2)cn1)c1cc2ccncc2o1` (racemic) [Example 87, Furo[2,3-c]pyridine-2-carboxylic acid [5-(3-trifluoromethyl-benzenesulfinyl)-pyridin-2-ylmethyl]-amide (racemic)], the IC50 at NAMPT worked out at 17.7 nM; with A2780 cells (setting [1]), 15.2 nM.

For the molecule `COCC(=O)N1CCC(S(=O)(=O)c2ccc(CNC(=O)N3Cc4ccncc4C3)nc2)CC1` [Example 121, N-[[5-[[1-(2-methoxyacetyl)-4-piperidyl]sulfonyl]-2-pyridyl]methyl]-1,3-dihydropyrrolo[3,4-c]pyridine-2-carboxamide], the IC50 came out at 68.2 nM on NAMPT and 2000 nM with A2780 cells (setting [1]).

Regarding `O=C(NCc1ccc([S+]([O-])c2cc(F)cc(F)c2)cn1)N1Cc2ccncc2C1` (centres unmarked) [Example 116, N-[[5-(3,5-difluorophenyl)sulfinyl-2-pyridyl]methyl]-1,3-dihydropyrrolo[3,4-c]pyridine-2-carboxamide], the results for the IC50 at NAMPT and in the test on A2780 cells (setting [2]) were 15.5 nM and 8.92 nM, respectively.

For `O=C(NCc1ccc(S(=O)(=O)c2cccc(C(F)(F)F)c2)cn1)c1cnc2nccn2c1` [Example 18, Imidazo[1,2-a]pyrimidine-6-carboxylic acid (5-(3-trifluoromethyl-benzenesulfonyl)-pyridin-2-ylmethyl]-amide], the IC50 is 4.7 nM at NAMPT and 11.7 nM in the test with A2780 cells (setting [1]).
